Reference: patent US8404708B2, “Dual NK1/NK3 receptor antagonists” (Hoffmann-La Roche Inc., priority 2004, dated 2013)

Key:
[1] = target: T1, Recombinant human NK3 (hNK3) receptor (Homo sapiens, UniProt P29371); experiment: NK3 receptor binding, [3H]SR142801 displacement, membrane preparations; conditions: second value of the cell pKi NK1/NK3; hNK3 receptor, [3H]SR142801
T1 construct: expressed in transfected cells
T1 sequence (P29371 1-465): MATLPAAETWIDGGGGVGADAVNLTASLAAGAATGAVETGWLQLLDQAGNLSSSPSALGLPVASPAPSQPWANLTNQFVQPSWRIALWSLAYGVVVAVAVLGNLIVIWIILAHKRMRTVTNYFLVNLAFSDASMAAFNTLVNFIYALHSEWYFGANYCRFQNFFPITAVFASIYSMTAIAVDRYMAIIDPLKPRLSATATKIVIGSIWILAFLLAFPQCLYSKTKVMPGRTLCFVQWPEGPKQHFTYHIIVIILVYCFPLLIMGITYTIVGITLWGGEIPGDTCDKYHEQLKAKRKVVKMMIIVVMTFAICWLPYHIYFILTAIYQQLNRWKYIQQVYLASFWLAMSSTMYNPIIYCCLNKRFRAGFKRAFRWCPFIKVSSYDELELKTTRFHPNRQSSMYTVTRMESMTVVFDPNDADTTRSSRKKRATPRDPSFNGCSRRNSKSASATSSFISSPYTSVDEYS
In short: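 Buffer: Tris-HCl 50 mM pH 7.4, BSA 0.1%, MnCl2 4 mM, phosphoramidon 1 μM. ~2.5 μg membrane/well, 90 min RT. NSB with SB222200 (10 μM). Vacuum filtration over 0.3% PEI-treated GF/C, cold Tris/BSA washes, scintillation count; duplicates, ≥2 experiments.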

[2] = target: human NK1 receptor (Homo sapiens, UniProt P25103); experiment: NK1 receptor binding, [3H]substance P displacement, CHO cell membranes; conditions: first value of the cell pKi NK1/NK3; human NK1 receptor, [3H]substance P
Sequence of human NK1 receptor (P25103 whole entry): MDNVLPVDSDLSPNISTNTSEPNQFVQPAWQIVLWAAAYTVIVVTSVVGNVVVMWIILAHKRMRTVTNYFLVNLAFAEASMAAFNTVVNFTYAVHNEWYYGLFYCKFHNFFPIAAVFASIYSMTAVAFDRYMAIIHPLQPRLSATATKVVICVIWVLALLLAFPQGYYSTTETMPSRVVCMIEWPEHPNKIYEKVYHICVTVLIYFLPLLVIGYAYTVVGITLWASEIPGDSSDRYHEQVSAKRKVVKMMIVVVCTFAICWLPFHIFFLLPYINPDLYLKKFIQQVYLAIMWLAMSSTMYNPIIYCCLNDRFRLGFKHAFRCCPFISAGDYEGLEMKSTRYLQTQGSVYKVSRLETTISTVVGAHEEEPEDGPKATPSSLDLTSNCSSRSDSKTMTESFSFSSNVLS

Row | Structure (SMILES) | Ki [1] [nM] | Ki [2] [nM] | pKi NK3 [1] | pKi NK1 [2]
1 | Cc1cc(C)cc(C(C)(C)C(=O)N(C)c2cnc(N3C[C@H](O)C[C@H]3CO)cc2-c2ccccc2C)c1 [Example 20, (2S,4R)-2-(3,5-Dimethyl-phenyl)-N-[6-(4-hydroxy-2-hydroxymethyl-pyrrolidin-1-yl)-4-o-tolyl-pyridin-3-yl]-N-methyl-isobutyramide] | 6.17 | 1.15 |  | 
2 | Cc1cc(F)ccc1-c1cc(NCCO)ncc1N(C)C(=O)C(C)(C)c1cc(Cl)cc(Cl)c1 [Example 21, 2-(3,5-Dichloro-phenyl)-N-[4-(4-fluoro-2-methyl-phenyl)-6-(2-hydroxy-ethylamino)-pyridin-3-yl]-N-methyl-isobutyramide] | 8.71 | 1.29 |  | 
3 | Cc1cc(F)ccc1-c1cc(N2CCC[C@H]2CO)ncc1N(C)C(=O)C(C)(C)c1cc(Cl)cc(Cl)c1 [Example 22, (S)-2-(3,5-Dichloro-phenyl)-N-[4-(4-fluoro-2-methyl-phenyl)-6-(2-hydroxymethyl-pyrrolidin-1-yl)-pyridin-3-yl]-N-methyl-isobutyramide] | 1.17 | 5.13 |  | 
4 | Cc1cc(F)ccc1-c1cc(N2C[C@H](O)C[C@H]2CO)ncc1N(C)C(=O)C(C)(C)c1cc(Cl)cc(Cl)c1 [Example 23, (2S,4R)-2-(3,5-Dichloro-phenyl)-N-[4-(4-fluoro-2-methyl-phenyl)-6-(4-hydroxy-2-hydroxymethyl-pyrrolidin-1-yl)-pyridin-3-yl]-N-methyl-isobutyramide] | 1.58 | 0.891 |  | 
5 | Cc1cc(F)ccc1-c1cc(N2CCC[C@H]2CO)ncc1N(C)C(=O)C(C)(C)c1cc(F)cc(C(F)(F)F)c1 [Example 24, (S)-N-[4-(4-Fluoro-2-methyl-phenyl)-6-(2-hydroxymethyl-pyrrolidin-1-yl)-pyridin-3-yl]-2-(3-fluoro-5-trifluoromethyl-phenyl)-N-methyl-isobutyramide] | 0.891 | 1.32 |  | 
6 | Cc1cc(F)ccc1-c1cc(N2C[C@H](O)C[C@H]2CO)ncc1N(C)C(=O)C(C)(C)c1cc(F)cc(C(F)(F)F)c1 [Example 25, (2S,4R)-N-[4-(4-Fluoro-2-methyl-phenyl)-6-(4-hydroxy-2-hydroxymethyl-pyrrolidin-1-yl)-pyridin-3-yl]-2-(3-fluoro-5-trifluoromethyl-phenyl)-N-methyl-isobutyramide] | 1.74 | 0.933 |  | 
7 | Cc1cc(F)ccc1-c1cc(N2CCC[C@H]2CO)ncc1N(C)C(=O)C(C)(C)c1cccc(C(F)(F)F)c1 [Example 26, (S)-N-[4-(4-Fluoro-2-methyl-phenyl)-6-(2-hydroxymethyl-pyrrolidin-1-yl)-pyridin-3-yl]-N-methyl-2-(3-trifluoromethyl-phenyl)-isobutyramide] | 5.75 | 3.02 |  | 
8 | Cc1cc(F)ccc1-c1cc(N2C[C@H](O)C[C@H]2CO)ncc1N(C)C(=O)C(C)(C)c1cccc(C(F)(F)F)c1 [Example 27, (2S,4R)-N-[4-(4-Fluoro-2-methyl-phenyl)-6-(4-hydroxy-2-hydroxymethyl-pyrrolidin-1-yl)-pyridin-3-yl]-N-methyl-2-(3-trifluoromethyl-phenyl)-isobutyramide] | 10.7 | 1.51 |  | 
9 | Cc1cc(F)ccc1-c1cc(N2CCC[C@H]2CO)ncc1N(C)C(=O)C(C)(C)c1cc(F)cc(F)c1 [Example 28, (S)-2-(3,5-Difluoro-phenyl)-N-[4-(4-fluoro-2-methyl-phenyl)-6-(2-hydroxymethyl-pyrrolidin-1-yl)-pyridin-3-yl]-N-methyl-isobutyramide] | 3.98 | 2.82 |  | 
10 | Cc1cc(F)ccc1-c1cc(N2C[C@H](O)C[C@H]2CO)ncc1N(C)C(=O)C(C)(C)c1cc(F)cc(F)c1 [Example 29, (2S,4R)-2-(3,5-Difluoro-phenyl)-N-[4-(4-fluoro-2-methyl-phenyl)-6-(4-hydroxy-2-hydroxymethyl-pyrrolidin-1-yl)-pyridin-3-yl]-N-methyl-isobutyramide] | 3.55 | 1.55 |  | 
11 | COc1cc(Cl)cc(C(C)(C)C(=O)N(C)c2cnc(N3CCC[C@H]3CO)cc2-c2ccc(F)cc2C)c1 [Example 30, (S)-2-(3-Chloro-5-methoxy-phenyl)-N-[4-(4-fluoro-2-methyl-phenyl)-6-(2-hydroxymethyl-pyrrolidin-1-yl)-pyridin-3-yl]-N-methyl-isobutyramide] | 3.55 | 3.72 |  | 
12 | COc1cc(Cl)cc(C(C)(C)C(=O)N(C)c2cnc(N3C[C@H](O)C[C@H]3CO)cc2-c2ccc(F)cc2C)c1 [Example 31, (2S,4R)-2-(3-Chloro-5-methoxy-phenyl)-N-[4-(4-fluoro-2-methyl-phenyl)-6-(4-hydroxy-2-hydroxymethyl-pyrrolidin-1-yl)-pyridin-3-yl]-N-methyl-isobutyramide] | 1.66 | 0.977 |  | 
13 | Cc1cc(C)cc(C(C)(C)C(=O)N(C)c2cnc(N3CCC[C@H]3CO)cc2-c2ccc(F)cc2C)c1 [Example 32, (S)-(3,5-Dimethyl-phenyl)-N-[4-(4-fluoro-2-methyl-phenyl)-6-(2-hydroxymethyl-pyrrolidin-1-yl)-pyridin-3-yl]-N-methyl-isobutyramide] |  |  | 8.52 | 8.51
14 | Cc1cc(C)cc(C(C)(C)C(=O)N(C)c2cnc(N3C[C@H](O)C[C@H]3CO)cc2-c2ccc(F)cc2C)c1 [Example 33, (2S,4R)-2-(3,5-Dimethyl-phenyl)-N-[4-(4-fluoro-2-methyl-phenyl)-6-(4-hydroxy-2-hydroxymethyl-pyrrolidin-1-yl)-pyridin-3-yl]-N-methyl-isobutyramide] | 3.02 | 1.17 |  | 
15 | CN(C(=O)C(C)(C)c1cc(Cl)cc(OC(F)F)c1)c1cnc(N2CCC[C@H]2CO)cc1-c1ccccc1Cl [Example 34, (S)-2-(3-Chloro-5-difluoromethoxy-phenyl)-N-[4-(2-chloro-phenyl)-6-(2-hydroxymethyl-pyrrolidin-1-yl)-pyridin-3-yl]-N-methyl-isobutyramide] | 0.832 | 3.89 |  | 
16 | CN(C(=O)C(C)(C)c1cc(Cl)cc(OC(F)F)c1)c1cnc(N2C[C@H](O)C[C@H]2CO)cc1-c1ccccc1Cl [Example 35, (2S,4R)-2-(3-Chloro-5-difluoromethoxy-phenyl)-N-[4-(2-chloro-phenyl)-6-(4-hydroxy-2-hydroxymethyl-pyrrolidin-1-yl)-pyridin-3-yl]-N-methyl-isobutyramide] | 0.55 | 1.95 |  | 
17 | Cc1ccccc1-c1cc(N2CCC[C@H]2CO)ncc1N(C)C(=O)C(C)(C)c1cc(Cl)cc(OC(F)F)c1 [Example 36, (S)-2-(3-Chloro-5-difluoromethoxy-phenyl)-N-[6-(2-hydroxymethyl-pyrrolidin-1-yl)-4-o-tolyl-pyridin-3-yl]-N-methyl-isobutyramide] | 0.708 | 4.27 |  | 
18 | Cc1ccccc1-c1cc(N2C[C@H](O)C[C@H]2CO)ncc1N(C)C(=O)C(C)(C)c1cc(Cl)cc(OC(F)F)c1 [Example 37, (2S,4R)-2-(3-Chloro-5-difluoromethoxy-phenyl)-N-[6-(4-hydroxy-2-hydroxymethyl-pyrrolidin-1-yl)-4-o-tolyl-pyridin-3-yl]-N-methyl-isobutyramide] | 0.617 | 1.2 |  | 
19 | Cc1cc(F)ccc1-c1cc(N2CCC[C@H]2CO)ncc1N(C)C(=O)C(C)(C)c1cc(Cl)cc(OC(F)F)c1 [Example 38, (S)-2-(3-Chloro-5-difluoromethoxy-phenyl)-N-[4-(4-fluoro-2-methyl-phenyl)-6-(2-hydroxymethyl-pyrrolidin-1-yl)-pyridin-3-yl]-N-methyl-isobutyramide] | 2.24 | 3.55 |  | 
20 | Cc1cc(F)ccc1-c1cc(N2C[C@H](O)C[C@H]2CO)ncc1N(C)C(=O)C(C)(C)c1cc(Cl)cc(OC(F)F)c1 [Example 39, (2S,4R)-2-(3-Chloro-5-difluoromethoxy-phenyl)-N-[4-(4-fluoro-2-methyl-phenyl)-6-(4-hydroxy-2-hydroxymethyl-pyrrolidin-1-yl)-pyridin-3-yl]-N-methyl-isobutyramide] | 1.29 | 1.05 |  | 
21 | CC(=O)N[C@H]1C[C@@H](CO)N(c2cc(-c3ccccc3Cl)c(N(C)C(=O)C(C)(C)c3cc(C(F)(F)F)cc(C(F)(F)F)c3)cn2)C1 [Example 40, (2S,4S)-N-[6-(4-Acetylamino-2-hydroxymethyl-pyrrolidin-1-yl)-4-(2-chloro-phenyl)-pyridin-3-yl]-2-(3,5-bis-trifluoromethyl-phenyl)-N-methyl-isobutyramide] | 1.02 | 0.646 |  | 
22 | CN(C(=O)C(C)(C)c1cc(C(F)(F)F)cc(C(F)(F)F)c1)c1cnc(N2CCC[C@@H]2CO)cc1-c1ccccc1Cl [Example 41, (R)-2-(3,5-Bis-trifluoromethyl-phenyl)-N-[4-(2-chloro-phenyl)-6-(2-hydroxymethyl-pyrrolidin-1-yl)-pyridin-3-yl]-N-methyl-isobutyramide] | 7.59 | 1.07 |  | 
23 | CN(C(=O)C(C)(C)c1cc(C(F)(F)F)cc(C(F)(F)F)c1)c1cnc(N2CCC[C@H]2CO)cc1-c1ccccc1Cl [Example 42, (S)-2-(3,5-Bis-trifluoromethyl-phenyl)-N-[4-(2-chloro-phenyl)-6-(2-hydroxymethyl-pyrrolidin-1-yl)-pyridin-3-yl]-N-methyl-isobutyramide] | 0.832 | 1.66 |  | 
